Results: patent US20060160773A1, “Combretastatin derivatives with cytotoxic action” (priority 2003, published 2006)

Columns and labels:
[1] = Evaluation of cardiovascular parameters (blood pressure, heart rate) in anaesthetised rats; assay type: in vivo; settings: 20 or 40 mg/kg injected in the jugular vein, anaesthetised Wistar rats (FIG. 1)
Procedure: Combretastatin A4, its prodrug ST2494 and our water soluble selected compounds ST2495 and ST2496, diluted at the doses of 20 or 40 mg/kg in saline solution or for combretastatin A4 in 5% DMSO, were injected in the jugular vein of Wistar rats anaesthetised with 55 mg/kg Nembutal. The parameter considered were blood pressure and heart rate.

cell growth = settings: background statement; cited from earlier work
[2] = test system: MES-SA human uterine sarcoma; assay: Cytotoxicity test (sulforodamine B), MES-SA; assay type: cell-based; settings: Homo sapiens, MES-SA, read-out: IC50 ± SE
Procedure: (§1) The cytotoxic effect of our derivatives was evaluated in series of human and murine cell lines.
(§2) The following cell lines, purchased from ATCC, were cultured according to the manufacturer's instructions: MeWo human melanoma, NCI-H460 human lung cancer, LoVo human colon adenocarcinoma, PC3 human prostate carcinoma, MES-SA human uterine sarcoma, HCT 116 human colorectal carcinoma, MCF-7 human breast carcinoma.
(§3) For the cytotoxicity test the cells were seeded at variable densities according to cell type in 96-well plates in normal culture medium (200 μl/well) and incubated for 24 hours at 37° C. On the next day, the study substances were added at scalar concentrations and the cells were incubated for a further 24 hours at 37° C. in a humidified atmosphere containing 5% CO2. At the end of the incubation period the medium containing the substances was removed and three washings with PBS were performed. At the end of the washings 200 μl/well of fresh medium were added and the plates were incubated at 37° C. for a further 48 hours. At the end of this incubation period the culture medium was removed by overturning the plates and 200 μl/well of PBS and 50 μl of 80% cold trichloroacetic acid (TCA) were added. The plates were then incubated in ice. After 1 h the TCA was removed, the plates were washed three times by immersion in distilled water and dried first on blotting paper and then in the oven. 200 μl of 0.4% sulforodamine B in 1% acetic acid were then added to all wells. The plates were incubated at room temperature for a further 30 minutes. The sulforodamine B was removed by overturning, the plates were washed three times by immersion in 1% acetic acid, and then dried first on blotting paper and then in the oven. 200 μl of Tris base 10 mM were then added to all wells and the plates were placed under stirring for at least 20 min. The optical density was measured by spectrophotometric readout at 540 nm.
(§4) In the same table are reported the IC50 of ST2897, ST2898 and ST2899 on BMEC.

[3] = test system: HT29 human colon adenocarcinoma line; assay: Cytotoxicity test (sulforodamine B), HT29; assay type: cell-based; settings: Homo sapiens, HT-29, read-out: IC50 ± SE
Procedure: as §1
(§5) The M109 murine lung cancer line, the HT29 human colon adenocarcinoma line, the A2780 human ovarian carcinoma line, obtained from the Milan Tumour Institute, were cultured in RPMI containing 10% FBS and antibiotics.
as §3, §4

[4] = test system: LoVo human colon adenocarcinoma; assay: Cytotoxicity test (sulforodamine B), LoVo; assay type: cell-based; settings: 24 h exposure, 48 h recovery, SRB
Procedure: as §1, §2
(§6) For the cytotoxicity test the cells were seeded at variable densities according to cell type in 96-well plates in normal culture medium (200 μl/well) and incubated for 24 hours at 37° C. On the next day, the study substances were added at scalar concentrations and the cells were incubated for a further 24 hours at 37° C. in a humidified atmosphere containing 5% CO2. At the end of the incubation period the medium containing the substances was removed and three washings with PBS were performed. At the end of the washings 200 μl/well of fresh medium were added and the plates were incubated at 37° C. for a further 48 hours. At the end of this incubation period the culture medium was removed by overturning the plates and 200 μl/well of PBS and 50 μl of 80% cold trichloroacetic acid (TCA) were added. The plates were then incubated in ice. […] The optical density was measured by spectrophotometric readout at 540 nm. […]

[5] = test system: M109 murine lung cancer line; assay: Cytotoxicity test (sulforodamine B), M109; assay type: cell-based; settings: Mus musculus, 24 h exposure, 48 h recovery, SRB
Procedure: as §1, §5
as §6, with “ice. After 1 h the TCA was removed, the plates were washed three times by immersion in distilled water and dried first on blotting paper and then in the oven.” for “ice.”

[6] = test system: A2780 human ovarian carcinoma line; assay: Cytotoxicity test (sulforodamine B), A2780; assay type: cell-based; settings: Homo sapiens, A2780, read-out: IC50 ± SE
Procedure: as §1, §5, §3, §4

[7] = test system: Human umbilical vein endothelial cells (HUVEC); assay: Cytotoxicity test (sulforodamine B), HUVEC; assay type: cell-based; settings: Homo sapiens, read-out: IC50 ± SE
Procedure: as §1
Human umbilical vein endothelial cells (HUVEC), from the BioWhittaker company, were maintained in EGM-2 culture medium (BioWhittaker).
as §3, §4

[8] = test system: tubulin rich in microtubule-associated proteins (MAP); assay: Tubulin polymerisation inhibition test; assay type: biochemical; settings: vs not treated control; mean of 3 independent determinations; concentration not given
Procedure: The tubulin polymerisation test in the presence of ST2151 was performed as described by Shiff et al. (Biochemistry, 1981, 20: 3247-3252) with a number of modifications. In brief, tubulin rich in microtubule-associated proteins (MAP) was diluted to the concentration of 3 mg/ml in PEM buffer [100 mM PIPES (pH 6.9), 1 mM EGTA and 1 mM MgCl2] containing 1 mM GTP (GPEM), and maintained in ice. The solution was placed at 37° C. and polymerisation was monitored by measuring absorbance at 340 nm every 25 seconds with a spectrophotometer equipped with an electronic temperature control device (Cobas-Mira Analyzer). After 5 minutes, when the polymerised tubulin had reached a steady state, 5 μM Taxol, 1.35 μM Colcemid, or ST2151 were added and the absorbance measurements were taken for a further 15 min. The IC50 values were determined by non-linear regression analysis using “Prism GraphPad” software. Results were expressed as % inhibition of tubulin polymerization vs not treated control.
The value indicated in Table 2 is the mean of 3 independent determinations.

[9] = test system: B16/BL6 murine melanoma line; assay: Cytotoxicity test (sulforodamine B), B16/BL6; assay type: cell-based; settings: Mus musculus, B16-BL6, read-out: IC50 ± SE
Procedure: as §1
The B16/BL6 murine melanoma line, obtained from the M. Negri Institute in Milan, was cultured in DMEM containing 10% FBS and antibiotics.
as §3, §4

[10] = test system: PC3 human prostate carcinoma; assay: Cytotoxicity test (sulforodamine B), PC3; assay type: cell-based; settings: 24 h exposure, 48 h recovery, SRB
Procedure: as §1, §2, §6

[11] = test system: MCF-7 human breast carcinoma; assay: Cytotoxicity test (sulforodamine B), MCF-7; assay type: cell-based; settings: Homo sapiens, MCF7, read-out: IC50 ± SE
Procedure: as §1, §2, §3, §4

[12] = test system: HCT 116 human colorectal carcinoma; assay: Cytotoxicity test (sulforodamine B), HCT 116; assay type: cell-based; settings: Homo sapiens, HCT-116, read-out: IC50 ± SE
Procedure: as §1, §2, §3, §4

MeWo human melanoma = assay: Cytotoxicity test (sulforodamine B), MeWo; assay type: cell-based; settings: Homo sapiens, read-out: IC50 ± SE
Procedure: as §1, §2, §3, §4

[13] = test system: Bovine microcirculatory endothelial cells (BMEC); assay: Cytotoxicity test (sulforodamine B), BMEC; assay type: cell-based; settings: Bos taurus, Endothelial cell, read-out: IC50 ± SE
Procedure: as §1
(§7) Bovine microcirculatory endothelial cells (BMEC), isolated from bovine adrenal glands, were maintained in culture in DMEM containing 20% FBS, 50 μg/ml of bovine brain extract (BBE), 50 units/ml of heparin (SIGMA), 100 units/ml of gentami-cin (SIGMA) and 10 mg/ml of L-glutamine (Hyclone). EA-hy926, an immortalised hybridoma of HUVEC and adenocarcinoma cells, obtained from the University of Bari Department of Biomedical Sciences and Human Oncology, was cultured in DMEM added with 10% FBS and gentamicin.
as §3, §4

[14] = test system: NCI-H460 human lung cancer; assay: Cytotoxicity test (sulforodamine B), NCI-H460; assay type: cell-based; settings: Homo sapiens, NCI-H460, read-out: IC50 ± SE
Procedure: as §1, §2, §3, §4

[15] = test system: EA-hy926, an immortalised hybridoma of HUVEC and adenocarcinoma cells; assay: Cytotoxicity test (sulforodamine B), EA-hy926; assay type: cell-based; settings: Homo sapiens, EA.hy 926; EAHY.926; 24 h exposure, 48 h recovery, SRB
Procedure: as §1, §7
as §6, with “hours.” for “hours. At the end of this incubation period the culture medium was removed by overturning the plates and 200 μl/well of PBS and 50 μl of 80% cold trichloroacetic acid (TCA) were added. The plates were then incubated in ice.”

[16] = Cancer Res., 62:3408-3416, 2002; cited from earlier work

| SMILES | blood pressure [1] | heart rate [1] | concentration inhibiting cell growth (cell growth) | IC50 [2] | IC50 [3] | IC50 [4] | IC50 [5] | IC50 [6] | IC50 [7] | % inhibition of tubulin polymerization [8] | IC50 [9] | IC50 [10] | IC50 [11] | IC50 [12] | IC50 (MeWo human melanoma) | IC50 [13] | IC50 [14] | IC50 [15] | side effects in Phase I study [16] |
| --- | --- | --- | --- | --- | --- | --- | --- | --- | --- | --- | --- | --- | --- | --- | --- | --- | --- | --- | --- |
| COc1ccc(/C=C\c2cc(OC)c(OC)c(OC)c2)cc1O [Combretastatin A4, Combretastatin A-4, reference compound] | significant increase in blood pressure | progressive decrease of heart rate | of the order of nanomoles | – | – | – | – | – | – | – | – | – | – | – | – | – | – | – | – |
| COc1cc(/C=C\c2cc(O)c3ccsc3c2)cc(OC)c1OC [ST2151, Cis-6-[2-(3,4,5-trimethoxy-phenyl)-vinyl]-benzo[b]thiophen-4-ol] | – | – | – | 86 ± 10 nM | 900 ± 65 nM | 360 ± 0.01 nM | 490 ± 30 nM | 70 ± 2 nM | 49 ± 0.64 nM | 37.1% | 85 ± 0.5 nM | 120 ± 0.01 nM | 66 ± 2.7 nM | 84 ± 3.8 nM | 68 ± 5 nM | 87 ± 1 nM | 74 ± 2.9 nM | 52 ± 4.9 nM | – |
| COc1cc(/C=C\c2cc(O)c3ccoc3c2)cc(OC)c1OC [ST2179, Cis-6-[2-(3,4,5-trimethoxy-phenyl)-vinyl]-benzofuran-4-ol] | – | – | – | 40 ± 4 nM | 990 ± 40 nM | 490 ± 0.04 nM | 93 ± 6 nM | 50 ± 2 nM | – | 44.0% | 44 ± 3.8 nM | 100 ± 0.01 nM | 38 ± 3 nM | 54 ± 9 nM | 71 ± 17 nM | 49 ± 1 nM | 53 ± 1.3 nM | 40 ± 3.9 nM | – |
| COc1ccc(/C=C\c2cc(OC)c(OC)c(OC)c2)cc1OP(=O)(O)O [combretastatin A4-P] | – | – | – | – | – | – | – | – | – | – | – | – | – | – | – | – | – | – | episodes of dose-limiting toxicity, including cases of acute coronary syndrome |
